Assay results from patent publication US20230293518A1 (Edgewise Therapeutics, Inc., priority 2020, published 2023).

Each compound was assayed against skeletal myofibrils (myosin ATPase) (assay: Skeletal Myofibril ATPase Assay). Settings: Table 4A.
Assay type: biochemical
Protocol: Example 12. Skeletal Myofibril ATPase Assay
Overview: Myosin ATPase activity is assessed by using a coupled reaction system, in which ADP generated by the myosin ATPase function is coupled to the disappearance of NADH through the pyruvate kinase/lactate dehydrogenase (PK-LDH) system. ATPase activity produces ADP, which is used as a substrate for PK to produce pyruvate and regenerate ATP. The pyruvate is then used as a substrate by LDH to oxidize NADH to NAD+. The rate of the reaction is monitored through the time-dependent disappearance of NADH using absorbance at 340 nm. Inhibition of ATPase activity by the assayed compounds is indicated by a reduced rate of NADH loss, relative to vehicle-treated controls, over the experimental time window. To assess the selectivity of the assayed compounds for skeletal myofibrils, the compounds are counter-screened in cardiac myofibrils.
Materials: The following stock solutions and reagents were used in the Skeletal Myofibril ATPase Assay:
Stock Solutions of pCa buffer. Combine PIPES, CaCl2, and EGTA solutions with 70 mL of water. Adjust pH to 7.0 and bring final volume to 100 mL.
Buffer A & Buffer B. Buffers were stored on ice until use.
Skeletal Myofibril ATPase Assay Procedure: BSA, ATP, NADH, PEP, and DTT solutions were thawed at room temperature, then transferred to ice. Pellet-frozen myofibrils were transferred with approximately twice the required volume into a sufficiently large tube and capped. Myofibrils were thawed by rolling in a water bath for approximately 15 min at room temperature and cooled on ice. Buffers A and B were prepared by adjusting volumes as necessary for required number of wells and stored on ice. 0.5 μL of the compounds to be assayed were added into wells. 25 μL of Buffer A was dispensed into the wells, followed by 25 μL of Buffer B. The wells were measured for absorbance at 340 nm, using a kinetic protocol in which the wells are read every 1.5-2 min for 45 min. The slope of the data was approximated by subtracting the minimum absorbance value from the maximum value for each well. This was accomplished either in the SoftMax Pro software or in a spreadsheet program such as Excel. Using GraphPad Prism 8.0, the data was normalized by assigning a value of 100% to the 1% DMSO vehicle wells. Typically, a normalized 0% value was simply assigned to a (Max−Min) value of 0. The normalized data was fit to a Four Parameter Logistic sigmoidal equation, constraining the bottom to be 0 or greater. Compounds of Table 1, 2, and 3 were tested and results of the assay appear in Tables 4a-4c. A=IC50 is less than or equal to 10 μM; B═IC50 is greater than 10 μM and less than 100 μM; C═IC50 is greater than 100 μM.

Row | IC50 | SMILES
1 | < 10 µM | CCNC(=O)Cn1nc(-c2cnc(Nc3ccc(Cl)cc3)nc2)ccc1=O [Compound I-1, 2-(3-(2-((4-chlorophenyl)amino)pyrimidin-5-yl)-6-oxopyridazin-1(6H)-yl)-N-ethylacetamide]
2 | 10 to 100 µM | CCNC(=O)Cn1nc(-c2ccc(N3CC(F)(F)C3)nc2)ccc1=O [Compound I-6, 2-(3-(6-(3,3-difluoroazetidin-1-yl)pyridin-3-yl)-6-oxopyridazin-1(6H)-yl)-N-ethylacetamide]
3 | < 10 µM | CCNC(=O)Cn1nc(-c2ccc(OC(F)F)nc2)ccc1=O [Compound I-7, 2-[3-[6-(difluoromethoxy)pyridin-3-yl]-6-oxo-1,6-dihydropyridazin-1-yl]-N-ethylacetamide]
4 | 10 to 100 µM | O=C(Cn1nc(-c2ccc(OC(F)F)nc2)ccc1=O)NC12CC(C1)C2 [Compound I-11, N-(bicyclo[1.1.1]pentan-1-yl)-2-(3-(6-(difluoromethoxy)pyridin-3-yl)-6-oxopyridazin-1(6H)-yl)acetamide]
5 | 10 to 100 µM | CCNC(=O)Cn1nc(-c2ccc(C3CC3)nc2)ccc1=O [Compound I-12, 2-(3-(6-cyclopropylpyridin-3-yl)-6-oxopyridazin-1(6H)-yl)-N-ethylacetamide]
6 | 10 to 100 µM | CCNC(=O)Cn1nc(-c2ccc(OCC(F)(F)F)nc2)ccc1=O [Compound I-13, N-ethyl-2-(6-oxo-3-(6-(2,2,2-trifluoroethoxy)pyridin-3-yl)pyridazin-1(6H)-yl)acetamide]
7 | 10 to 100 µM | CCNC(=O)Cn1nc(-c2ccc(OC(F)(F)F)nc2)ccc1=O [Compound I-14, N-ethyl-2-(6-oxo-3-(6-(trifluoromethoxy)pyridin-3-yl)pyridazin-1(6H)-yl)acetamide]
8 | 10 to 100 µM | CC1(NC(=O)Cn2nc(-c3ccc(OC(F)F)nc3)ccc2=O)CCC1 [Compound I-15, 2-(3-(6-(difluoromethoxy)pyridin-3-yl)-6-oxopyridazin-1(6H)-yl)-N-(1-methylcyclobutyl) acetamide]
9 | 10 to 100 µM | COc1ccc(-c2ccc(=O)n(CC(=O)NC(C)C)n2)cn1 [Compound I-16, N-isopropyl-2-(3-(6-methoxypyridin-3-yl)-6-oxopyridazin-1(6H)-yl)acetamide]
10 | 10 to 100 µM | O=C(Cn1nc(-c2ccc(OC(F)F)nc2)ccc1=O)N[C@H]1CC12CC2 [Compound I-17, (S)-2-(3-(6-(difluoromethoxy)pyridin-3-yl)-6-oxopyridazin-1(6H)-yl)-N-(spiro[2.2]pentan-1-yl)acetamide]
11 | 10 to 100 µM | CCC(C)(C)NC(=O)Cn1nc(-c2ccc(OC(F)F)nc2)ccc1=O [Compound I-20, 2-(3-(6-(difluoromethoxy)pyridin-3-yl)-6-oxopyridazin-1(6H)-yl)-N-(tert-pentyl)acetamide]
12 | > 100 µM | CCNC(=O)Cn1nc(-c2ccc(OC3COC3)nc2)ccc1=O [Compound I-25, N-ethyl-2-(3-(6-(oxetan-3-yloxy)pyridin-3-yl)-6-oxopyridazin-1(6H)-yl)acetamide]
13 | > 100 µM | CCNC(=O)Cn1nc(-c2ccc(OCCCN(C)C)nc2)ccc1=O [Compound I-28, 2-(3-(6-(3-(dimethylamino)propoxy)pyridin-3-yl)-6-oxopyridazin-1(6H)-yl)-N-ethylacetamide]
14 | > 100 µM | Cn1nccc1CNC(=O)Cn1nc(-c2ccc(OC(F)F)nc2)ccc1=O [Compound I-30, 2-(3-(6-(difluoromethoxy)pyridin-3-yl)-6-oxopyridazin-1(6H)-yl)-N-((1-methyl-1H-pyrazol-5-yl)methyl)acetamide]
15 | > 100 µM | CCNC(=O)Cn1nc(-c2ccc(N3CC4(COC4)C3)nc2)ccc1=O [Compound I-31, 2-(3-(6-(2-oxa-6-azaspiro[3.3]heptan-6-yl)pyridin-3-yl)-6-oxopyridazin-1(6H)-yl)-N-ethylacetamide]
16 | 10 to 100 µM | CC(C)(C#N)NC(=O)Cn1nc(-c2ccc(OC(F)F)nc2)ccc1=O [Compound I-35, N-(2-cyanopropan-2-yl)-2-(3-(6-(difluoromethoxy)pyridin-3-yl)-6-oxopyridazin-1(6H)-yl)acetamide]

The next lines start with the compound.

Row | SMILES | IC50
17 | CC(C)[C@@](C)(C#N)NC(=O)Cn1nc(-c2ccc(OC(F)F)nc2)ccc1=O (stereo in doubt) [Compound I-34, N-(2-cyano-3-methylbutan-2-yl)-2-(3-(6-(difluoromethoxy)pyridin-3-yl)-6-oxopyridazin-1(6H)-yl)acetamide] | 10 to 100 µM
18 | CCNC(=O)Cn1nc(-c2cnc(Nc3ccc(F)cc3)nc2)ccc1=O [Compound I-2, N-ethyl-2-(3-(2-((4-fluorophenyl)amino)pyrimidin-5-yl)-6-oxopyridazin-1(6H)-yl)acetamide] | < 10 µM
19 | O=C(Cn1nc(-c2ccc(OC(F)F)nc2)ccc1=O)NC1CCC1 [Compound I-4, N-cyclobutyl-2-(3-(6-(difluoromethoxy)pyridin-3-yl)-6-oxopyridazin-1(6H)-yl)acetamide] | < 10 µM
20 | COc1ccc(-c2ccc(=O)n(CC(=O)NCc3ccccc3Cl)n2)cn1 [Compound I-5, N-(2-chlorobenzyl)-2-(3-(6-methoxypyridin-3-yl)-6-oxopyridazin-1(6H)-yl)acetamide] | < 10 µM
21 | CCNC(=O)Cn1nc(-c2cnc(OCC(F)(F)F)nc2)ccc1=O [Compound I-8, N-ethyl-2-(6-oxo-3-(2-(2,2,2-trifluoroethoxy)pyrimidin-5-yl)pyridazin-1(6H)-yl)acetamide] | < 10 µM
22 | CCNC(=O)Cn1nc(-c2ccc(OCCC(F)(F)F)nc2)ccc1=O [Compound I-10, N-ethyl-2-[6-oxo-3-[6-(3,3,3-trifluoropropoxy)pyridin-3-yl]-1,6-dihydropyridazin-1-yl]acetamide] | 10 to 100 µM
23 | CCNC(=O)Cn1nc(-c2ccc(N3CC(C)(C)C3)nc2)ccc1=O [Compound I-18, 2-(3-(6-(3,3-dimethylazetidin-1-yl)pyridin-3-yl)-6-oxopyridazin-1(6H)-yl)-N-ethylacetamide] | 10 to 100 µM
24 | CCNC(=O)Cn1nc(-c2ccc(N3CCC34COC4)nc2)ccc1=O [Compound I-19, 2-(3-(6-(6-oxa-1-azaspiro[3.3]heptan-1-yl)pyridin-3-yl)-6-oxopyridazin-1(6H)-yl)-N-ethylacetamide] | 10 to 100 µM
25 | CCNC(=O)Cn1nc(-c2ccc(Oc3ccc(F)cc3)nc2)ccc1=O [Compound I-21, N-ethyl-2-(3-(6-(4-fluorophenoxy)pyridin-3-yl)-6-oxopyridazin-1(6H)-yl)acetamide] | 10 to 100 µM
26 | CCNC(=O)Cn1nc(-c2ccc(OCC3COC3)nc2)ccc1=O [Compound I-22, N-ethyl-2-(3-(6-(oxetan-3-ylmethoxy)pyridin-3-yl)-6-oxopyridazin-1(6H)-yl)acetamide] | 10 to 100 µM
27 | CCNC(=O)Cn1nc(-c2ccc(OCC3(F)COC3)nc2)ccc1=O [Compound I-23, N-ethyl-2-(3-(6-((3-fluorooxetan-3-yl)methoxy)pyridin-3-yl)-6-oxopyridazin-1(6H)-yl)acetamide] | 10 to 100 µM
28 | CCNC(=O)Cn1nc(-c2ccc(OCC3(C)COC3)nc2)ccc1=O [Compound I-24, N-ethyl-2-(3-(6-((3-methyloxetan-3-yl)methoxy)pyridin-3-yl)-6-oxopyridazin-1(6H)-yl)acetamide] | 10 to 100 µM
29 | CCNC(=O)Cn1nc(-c2ccc(OCCN(C)C)nc2)ccc1=O [Compound I-26, 2-(3-(6-(2-(dimethylamino)ethoxy)pyridin-3-yl)-6-oxopyridazin-1(6H)-yl)-N-ethylacetamide] | > 100 µM
30 | CCNC(=O)Cn1nc(-c2ccc(OC(C)C)nc2)ccc1=O [Compound I-27, N-ethyl-2-(3-(6-isopropoxypyridin-3-yl)-6-oxopyridazin-1(6H)-yl)acetamide] | > 100 µM
31 | C[C@H](NC(=O)Cn1nc(-c2ccc(OC(F)F)nc2)ccc1=O)c1ccnn1C [Compound I-29, (S)-2-(3-(6-(difluoromethoxy)pyridin-3-yl)-6-oxopyridazin-1(6H)-yl)-N-(1-(1-methyl-1H-pyrazol-5-yl)ethyl)acetamide] | > 100 µM
32 | CCNC(=O)Cn1nc(-c2ccc(N3CC4(C3)CS(=O)(=O)C4)nc2)ccc1=O [Compound I-32, 2-(3-(6-(2,2-dioxido-2-thia-6-azaspiro[3.3]heptan-6-yl)pyridin-3-yl)-6-oxopyridazin-1(6H)-yl)-N-ethylacetamide] | > 100 µM
33 | O=C(Cn1nc(-c2ccc(OC(F)F)nc2)ccc1=O)NC1CC(F)(F)C1 [Compound I-33, N-(3,3-difluorocyclobutyl)-2-(3-(6-(difluoromethoxy)pyridin-3-yl)-6-oxopyridazin-1(6H)-yl)acetamide] | > 100 µM

Same assay, conditions: Table 4C

Row | IC50 | SMILES
34 | < 10 µM | COc1ccc(-c2ccc(=O)n(CC(=O)NCc3cc(Cl)ccc3Cl)n2)cc1
